Common to all, as to type: in vivo
The test system of one assay is Erysiphe cichoracaerum. Nature of the assay: Cucumber Powdery Mildew (ERYSCI) whole-plant disease control test. The note with it: Erysiphe, foliar; 200 ppm applied to foliage of cucumber; inoculated one day after treatment; read-out: ERYSCI disease control.
For the next assay, the system named is Phytophthora infestans. As to the kind of experiment: whole plant or invertebrate. Particulars: Phytophthora infestans, in Solanum lycopersicum, foliar, read-out: PHYTIN disease control, 200 ppm applied to foliage of tomato; inoculated one day after treatment.
Assay [1] has as its system Mycosphaerella graminicola=Septoria tritici. Nature of the assay: Speckled Leaf Blotch of Wheat (SEPTTR) whole-plant disease control test. The note with it: Mycosphaerella, foliar, 75 ppm applied to foliage of wheat; read-out: SEPTTR disease control.
The next assay concerns Leptosphaeria nodorum. As to the kind of experiment: Glume Blotch of Wheat (LEPTNO) whole-plant disease control test. The note with it: Parastagonospora nodorum, foliar; for pest or weed control at 200 ppm: 200 ppm applied to foliage of wheat, inoculated one day after treatment, read-out: LEPTNO disease control; for pest or weed control at 75 ppm: 75 ppm (footnote b), wheat foliage.

A further assay relates to Colletotricum lagenarium. Nature of the assay: Cucumber Anthracnose (COLLLA) whole-plant disease control test. The note with it: Cucumis sativus, foliar; 200 ppm applied to foliage of cucumber; inoculated one day after treatment; read-out: COLLLA disease control.
For assay [2], the system named is Puccinia recondita tritici. Nature of the assay: Leaf Rust of Wheat (PUCCRT) whole-plant disease control test. Particulars: Puccinia recondita, foliar; for pest or weed control at 200 ppm: 200 ppm applied to foliage of wheat, inoculated one day after treatment, read-out: PUCCRT disease control; for pest or weed control at 8.3 ppm: 8.3 ppm (footnote c), wheat foliage.

Assay [3] relates to Magnaporthe grisea=Pyricularia oryzae. As to the kind of experiment: whole plant or invertebrate. Particulars: Pyricularia oryzae, foliar; for pest or weed control at 200 ppm: read-out: PYRIOR disease control, 200 ppm applied to foliage of rice, inoculated one day after treatment; for pest or weed control at 8.3 ppm: read-out: PYRIOR disease control, 8.3 ppm (footnote c), rice foliage.

As for `N#Cc1ncc(Oc2ccc(CCNc3ncnc4scc(Cl)c34)cc2)cn1` [Compound 40], the pest or weed control at 200 ppm lay within 50 to 79% in the assay on Erysiphe cichoracaerum; 80 to 100% in the assay with Phytophthora infestans; 0 to 49% in the assay on Leptosphaeria nodorum; 0 to 49% in the assay with Colletotricum lagenarium; 80 to 100% in assay [2]; 80 to 100% in assay [3]. Also, in assay [1], the pest or weed control at 75 ppm was 0 to 49%.

The compound `N#Cc1ccc(C(F)(F)F)nc1Oc1ccc(CCNc2ncnc3scc(Cl)c23)cc1` [Compound 133] had a pest or weed control at 8.3 ppm in assay [2] of 0 to 49%.

With `Clc1csc2ncnc(NCCc3ccc(Oc4nnc(-c5ccncc5)s4)cc3)c12` [Compound 118], the pest or weed control at 75 ppm (in assay [1]; with Leptosphaeria nodorum) was 0 to 49% throughout. Further, the pest or weed control at 8.3 ppm in assay [2] and in assay [3] was 80 to 100% in each case.

Take `CC(C)Cc1nnc(Oc2ccc(CCNc3ncnc4scc(Cl)c34)cc2)s1` [Compound 117]: the pest or weed control at 75 ppm (in assay [1]; with Leptosphaeria nodorum) was 0 to 49% each time. Also, the pest or weed control at 8.3 ppm in assay [2] and in assay [3] was 80 to 100% in each case.

On to `CS(=O)(=O)c1ccc(Oc2ccc(CCNc3ncnc4scc(Cl)c34)cc2)nc1` [Compound 2], for which the pest or weed control at 200 ppm with Erysiphe cichoracaerum was 0 to 49%; in the assay with Phytophthora infestans, 0 to 49%; in the assay on Leptosphaeria nodorum, 0 to 49%; with Colletotricum lagenarium, 0 to 49%; in assay [2], 80 to 100%; in assay [3], 50 to 79%.

`Nc1c(F)c(F)nc(Oc2ccc(CCNc3ncnc4scc(Cl)c34)cc2)c1F` [Compound 128]: the pest or weed control at 8.3 ppm in assay [2] and in assay [3] was 80 to 100% in each case.

Consider `CC(C)(C)C(=O)NNc1cccc(Oc2ccc(CCNc3ncnc4scc(Cl)c34)cc2)n1` [Compound 102, 2,2-Dimethylpropionic acid N′-(6-{4-[2-(5-chlorothieno[2,3-d]pyrimidin-4-ylamino)ethyl]phenoxy}pyridine-2-yl)-hydrazide], for which the pest or weed control at 75 ppm (in assay [1]; in the assay with Leptosphaeria nodorum) was 0 to 49% each time. In addition, the figures for the pest or weed control at 8.3 ppm in assay [2] and in assay [3] were 0 to 49% and 50 to 79%, respectively.

In the case of `Clc1csc2ncnc(NCCc3ccc(Oc4snnc4-c4ccccc4)cc3)c12` [Compound 115], the pest or weed control at 75 ppm (in assay [1]; with Leptosphaeria nodorum) was 50 to 79% throughout. Further, the pest or weed control at 8.3 ppm in assay [2] fell in the range of 80 to 100%; in assay [3], 50 to 79%.

Consider `CC(C)(C)c1noc(-c2cccc(Oc3ccc(CCNc4ncnc5scc(Cl)c45)cc3)n2)n1` [Compound 96], for which the pest or weed control at 75 ppm (in assay [1]; with Leptosphaeria nodorum) was 50 to 79% each time. Further, the results for the pest or weed control at 8.3 ppm in assay [2] and in assay [3] were 80 to 100% and 50 to 79%, respectively.

Take `COC(=O)c1ccc(Oc2ccc(CCNc3ncnc4scc(Cl)c34)cc2)nc1` [Compound 20]: the pest or weed control at 200 ppm lay within 0 to 49% in the assay on Erysiphe cichoracaerum; 0 to 49% in the assay on Phytophthora infestans; 0 to 49% with Leptosphaeria nodorum; 0 to 49% in the assay on Colletotricum lagenarium; 80 to 100% in assay [2]; 0 to 49% in assay [3].

`Fc1cc(F)c(Oc2ccc(CCNc3ncnc4scc(Cl)c34)cc2)nc1F` [Compound 129]: the pest or weed control at 75 ppm is 80 to 100% in assay [1] and 50 to 79% in the assay on Leptosphaeria nodorum. Moreover, the pest or weed control at 200 ppm in assay [2] and in assay [3] was 80 to 100% each time.

Regarding `NC(=O)c1cccc(Oc2ccc(CCNc3ncnc4scc(Cl)c34)cc2)n1` [Compound 82], the pest or weed control at 75 ppm (in assay [1]; in the assay with Leptosphaeria nodorum) was 50 to 79% in each case. Further, the pest or weed control at 8.3 ppm in assay [2] and in assay [3] was 80 to 100% throughout.

On to `COc1cccc(Oc2ccc(CCNc3ncnc4scc(Cl)c34)cc2)n1` [Compound 84, (5-Chlorothieno[2,3-d]pyrimidin-4-yl)-{2-[4-(6-methoxypyridin-2-yloxy)phenyl]ethyl}amine], for which the pest or weed control at 75 ppm (in assay [1]; with Leptosphaeria nodorum) was 50 to 79% throughout. Besides, the pest or weed control at 8.3 ppm in assay [2] and in assay [3] was 80 to 100% each time.

As for `O=Cc1sc(Oc2ccc(CCNc3ncnc4scc(Cl)c34)cc2)nc1Cl` [Compound 121], the pest or weed control at 75 ppm (in assay [1]; in the assay on Leptosphaeria nodorum) was 0 to 49% throughout. The pest or weed control at 8.3 ppm in assay [2] and in assay [3] was 80 to 100% throughout.

As to `CC(C)(C)c1nnc(Oc2ccc(CCNc3ncnc4scc(Cl)c34)cc2)s1` [Compound 109], the pest or weed control at 75 ppm (in assay [1]; in the assay with Leptosphaeria nodorum) was 50 to 79% each time. In addition, the pest or weed control at 8.3 ppm in assay [2] and in assay [3] was 80 to 100% throughout.

As to `COc1cnc(C(F)(F)F)c(F)c1Oc1ccc(CCNc2ncnc3scc(Cl)c23)cc1` [Compound 113], the pest or weed control at 75 ppm (in assay [1]; with Leptosphaeria nodorum) was 0 to 49% each time. Further, the pest or weed control at 8.3 ppm in assay [2] and in assay [3] was 80 to 100% throughout.

The compound `Fc1cnc(C(F)(F)F)c(F)c1Oc1cccc(CCNc2ncnc3scc(Cl)c23)c1` [Compound 131] gave a pest or weed control at 8.3 ppm in assay [2] of 50 to 79%.

`CC(=O)c1cccc(Oc2ccc(CCNc3ncnc4scc(Cl)c34)cc2)n1` [Compound 100]: the pest or weed control at 75 ppm with Leptosphaeria nodorum lay in the range of 0 to 49%. Further, the pest or weed control at 8.3 ppm in assay [2] and in assay [3] was 80 to 100% throughout.

Regarding `CSc1cc(C(F)(F)F)cc(Oc2ccc(CCNc3ncnc4scc(Cl)c34)cc2)n1` [Compound 93], the pest or weed control at 75 ppm in assay [1] was in the range of 50 to 79%; in the assay on Leptosphaeria nodorum it was 0 to 49%. The pest or weed control at 8.3 ppm in assay [2] and in assay [3] was 80 to 100% each time.

As for `O=C(O)c1ccc(C(F)(F)F)nc1Oc1ccc(CCNc2ncnc3scc(Cl)c23)cc1` [Compound 98], the pest or weed control at 75 ppm in assay [1] lay within 50 to 79%; in the assay with Leptosphaeria nodorum it was 0 to 49%. Moreover, the pest or weed control at 8.3 ppm in assay [2] and in assay [3] was 0 to 49% each time.

Consider `FC(F)(F)c1cnccc1Oc1ccc(CCNc2ncnc3scc(Cl)c23)cc1` [Compound 126], for which the pest or weed control at 75 ppm lay in the range of 80 to 100% in assay [1] and 50 to 79% with Leptosphaeria nodorum. This compound gave a pest or weed control at 8.3 ppm in assay [2] of 80 to 100%.

`N#Cc1c(Cl)cncc1Oc1cccc(CCNc2ncnc3scc(Cl)c23)c1` [Compound 130]: the pest or weed control at 200 ppm was 0 to 49% with Erysiphe cichoracaerum; 80 to 100% with Phytophthora infestans; 0 to 49% in the assay with Colletotricum lagenarium; 80 to 100% in assay [2]; 80 to 100% in assay [3]. Besides, the pest or weed control at 75 ppm in assay [1] was 0 to 49%.

For `C[S+]([O-])c1cc(Cl)nc(Oc2ccc(CCNc3ncnc4scc(Cl)c34)cc2)c1` (centres unmarked) [Compound 92], the results for the pest or weed control at 75 ppm (in assay [1]; with Leptosphaeria nodorum) were 50 to 79% and 0 to 49%, respectively. For the same compound, the pest or weed control at 8.3 ppm in assay [2] and in assay [3] was 80 to 100% throughout.

As to `COc1ccc([N+](=O)[O-])c(Oc2ccc(CCNc3ncnc4scc(Cl)c34)cc2)n1` [Compound 116], the pest or weed control at 75 ppm (in assay [1]; with Leptosphaeria nodorum) was 0 to 49% each time. Also, the values for the pest or weed control at 8.3 ppm in assay [2] and in assay [3] were 80 to 100% and 0 to 49%, respectively.

On to `Clc1csc2ncnc(NCCc3ccc(Oc4nnc(COc5ccccc5)s4)cc3)c12` [Compound 119], for which the pest or weed control at 75 ppm (in assay [1]; in the assay on Leptosphaeria nodorum) was 0 to 49% in each case. Moreover, the pest or weed control at 8.3 ppm in assay [2] and in assay [3] was 80 to 100% throughout.

As for `O=c1ncn(-c2cccc(Oc3ccc(CCNc4ncnc5scc(Cl)c45)cc3)n2)[nH]1` [Compound 90], the figures for the pest or weed control at 75 ppm (in assay [1]; with Leptosphaeria nodorum) were 50 to 79% and 0 to 49%, respectively. Moreover, the pest or weed control at 8.3 ppm in assay [2] was in the range of 0 to 49%; in assay [3], 50 to 79%.

Turning to `Fc1ccc(F)c(Oc2ccc(CCNc3ncnc4scc(Cl)c34)cc2)n1` [Compound 132], the pest or weed control at 8.3 ppm in assay [2] and in assay [3] was 80 to 100% throughout.

As to `FC(F)(F)COc1cccc(Oc2ccc(CCNc3ncnc4scc(Cl)c34)cc2)n1` [Compound 111], the pest or weed control at 75 ppm in assay [1] was in the range of 50 to 79%; in the assay on Leptosphaeria nodorum, 0 to 49%. The pest or weed control at 8.3 ppm fell in the range of 50 to 79% in assay [2] and 80 to 100% in assay [3].

`FC(F)(F)COc1ccnc(Oc2ccc(CCNc3ncnc4scc(Cl)c34)cc2)c1` [Compound 127]: the pest or weed control at 75 ppm in assay [1] fell in the range of 50 to 79%; in the assay with Leptosphaeria nodorum, 80 to 100%. This compound came in with a pest or weed control at 8.3 ppm in assay [2] of 80 to 100%.

On to `O=[N+]([O-])c1cccc(Oc2ccc(CCNc3ncnc4scc(Cl)c34)cc2)n1` [Compound 83], for which the pest or weed control at 75 ppm (in assay [1]; in the assay with Leptosphaeria nodorum) was 50 to 79% each time. The pest or weed control at 8.3 ppm in assay [2] and in assay [3] was 80 to 100% each time.

The values above are taken from US7531482B2, “Thieno-pyrimidine compounds having fungicidal activity” (Dow AgroSciences LLC, priority 2005, dated 2009).
